Assays:
[1] = tested on: IBD in mice; experiment: Efficacy on IBD in mice; type: in vivo, mouse; settings: for DAI / body weight / inflammatory cell infiltration score of colon tissues / tissue injury score of colon tissues: vs G2 model group; for Colon weight CW (g): day 0 to day 9, DSS mice
Method: The mice in G2 to G6 were given 2% DSS aqueous solution on day 0 to day 6, normal water on […], vehicle/positive/test substance on day 0 to day 9, and euthanized on day 10 for necropsy. Colon weight (CW) and colon length (CL) were measured and colon tissues […] were subjected to histopathological examination.

[2] = tested on: A549 cells; experiment: Effect of compounds on PGE2 levels in A549 cell supernatant; type: cell-based; settings: 20 nM compound, about 12 hours, after IL-10 stimulation; ELISA
Method: A549 cells (Procell, Wuhan) were cultured in F12K+10% FBS. The cells with good status in log phase were selected for the experiment, digested, counted, and inoculated into a 24-well plate at 8000 cells per well. The cells were cultured in a 37° C., 5% CO2 incubator overnight. After adherence, the cells were transferred to a culture medium containing 0.5% FBS and cultured for about 10 hours. IL-10 was added to each well (final concentration of 20 ng/mL, 1 mL per well), and a control group (without IL-10) was set up. After stimulation with IL-10 for about 24 hours, the cell culture medium of each well was aspirated and discarded, and the wells were gently washed with fresh culture medium containing 0.5% FBS. 400 μL of culture medium containing the compound of different concentrations (20 nM and 2500 nM) was added to each well and cultured for about 12 hours. The supernatant was collected and PGE2 was detected using ELISA kit (R&D Systems, Cat. No.: KGE004B).

[3] = target: 15-PGDH (Homo sapiens (Human), UniProt P15428); experiment: Inhibition test of compounds on 15-PGDH enzyme; type: biochemical
Method: 15-PGDH (R&D Systems, Cat. No.: 5660-DH-010) was prepared to twice the final concentration, i.e., 30 nM, using Assay Buffer (50 mM Tris-HCl, pH 7.5, 0.01vol % Tween 20). The obtained mixture was then added to a 384-well white plate (Cisbio Bioassays, Cat. No. 66PL384025) at 8 μL/well. Negative control wells (with Assay Buffer only and without enzyme) were set. The compound was then prepared to 4 times the final concentration using Assay Buffer, i.e., diluted 3-fold to 10 concentrations starting from 4000 nM. The obtained mixture was added to the above white plate at 4 μL/well, mixed well, centrifuged at 1000 rpm for 1 minute, and incubated at 25° C. for 10 minutes. Both positive control wells (with 15-PGDH only) and negative control wells (without 15-PGDH) were set. A mixture of NAD^+(Select, Cat. No. S2518) and PGE2 (R&D Systems, Cat. No.: 2296/10) was then prepared using Assay Buffer. NAD^+ and PGE2 were prepared to four times their final concentrations, i.e., 2 mM and 0.12 mM, respectively, using Assay Buffer. The obtained mixture was then added to the above white plate at 4 μL/well, mixed well, centrifuged at 1000 rpm for 1 minute, and incubated at 25° C. for 30 minutes for the reaction. The fluorescence was detected at an excitation wavelength of 340 nm and an emission wavelength of 485 nm using instrument TECAN SPARK 20M. The IC50 value was calculated using four-parameter fitting with GraphPad Prism 8.0.

[4] = Pharmacokinetics in mice; type: in vivo; settings: mouse, po; male CD-1 mice, 10 mg/kg, gavage, plasma
Method: The pharmacokinetic properties of the compounds of the present disclosure in mice were determined with reference to the following experimental methods.
Three male CD-1 mice were used, administered at a dose of 10 mg/kg, the route of administration was by gavage, and the vehicle was 5% DMSO+10% Solutol+85% Saline. The mice were fasted overnight, and the time points of blood collection were before administration and at 15 minutes, 30 minutes, 1 hour, 2 hours, 4 hours, 8 hours, and 24 hours after administration. Blood samples were centrifuged at 6800 g for 6 minutes at 2 to 8° C., and plasma was collected and stored at −80° C. 10 μL of plasma at each time point was taken, and added with 200 μL of methanol containing 100 ng/mL internal standard. The mixture was vortexed, mixed evenly, and then centrifuged at 18000 g for 7 minutes at 2 to 8° C. 200 μL of the mixture was transferred to a 96-well injection plate for LC-MS/MS quantitative analysis. The main pharmacokinetic parameters were analyzed using WinNonlin 7.0 software with non-compartmental model.

15-PGDH, sequence (P15428 whole entry): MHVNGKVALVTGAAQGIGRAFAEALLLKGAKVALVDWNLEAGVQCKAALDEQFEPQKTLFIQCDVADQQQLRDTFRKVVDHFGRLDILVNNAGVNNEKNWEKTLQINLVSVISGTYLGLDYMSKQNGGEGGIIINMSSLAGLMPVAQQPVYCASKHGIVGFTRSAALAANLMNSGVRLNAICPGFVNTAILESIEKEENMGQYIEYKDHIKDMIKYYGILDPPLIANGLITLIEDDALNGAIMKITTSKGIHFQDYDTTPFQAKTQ

Row | SMILES | Fold increase of PGE2 in A549 cell supernatant [2] | IC50 [3] [nM] | AUC(0-t) [4] [ng·h/mL] | Cmax [4] [ng/mL] | further results
1 | Cn1nc2cc(N3CC4CC4c4cc(C(=O)N5CCC(F)(F)CC5)cnc43)ccn2c1=O (single isomer, unassigned) [Compound I-3B] | – | – | – | – | DAI ([1]; G4, 2.5 mg/kg bid): significant decrease; body weight ([1]; G4, 2.5 mg/kg bid): increase; inflammatory cell infiltration score of colon tissues ([1]; G4, 2.5 mg/kg bid): significant decrease; tissue injury score of colon tissues ([1]; G4, 2.5 mg/kg bid): significant decrease; Colon weight CW (g) ([1]; G4 low-dose, 2.5 mg/kg bid): significant decrease; DAI ([1]; G5, 5 mg/kg bid): significant decrease; body weight ([1]; G5, 5 mg/kg bid): significant increase; inflammatory cell infiltration score of colon tissues ([1]; G5, 5 mg/kg bid): significant decrease; tissue injury score of colon tissues ([1]; G5, 5 mg/kg bid): significant decrease; Colon weight CW (g) ([1]; G5 high-dose, 5 mg/kg bid): significant decrease
2 | Cn1ccc2cc(N3CC4CC4c4cc(C(=O)N5CCC(F)(F)CC5)cnc43)ccc2c1=O (stereo not drawn) [Compound I-12, 6-(6-(4,4-difluoropiperidine-1-carbonyl)-1,1a,2,7b-tetrahydro-3H-cyclopropa[c][1,8]naphthyridin-3-yl)-2-methylisoquinolin-1(2H)-one] | 5.44 | 2.1 | 107000 | 14800 | –
3 | Cn1nc2cc(N3CC4CC4c4cc(C(=O)N5CCC6(CC5)CC6)cnc43)ccn2c1=O (stereo not drawn) [Compound I-28, 7-(6-(6-azaspiro[2.5]octane-6-carbonyl)-1,1a,2,7b-tetrahydro-3H-cyclopropa[c][1,8]naphthyridin-3-yl)-2-methyl-[1,2,4]triazolo[4,3-a]pyridin-3(2H)-one] | 4.05 | 1.71 | 10700 | 5040 | –
4 | Cn1nc2cc(N3CC4CC4c4cc(C(=O)N5CCC[C@@H](CF)C5)cnc43)ccn2c1=O (stereo partly drawn) [Compound I-30, 7-(6-((R)-3-(fluoromethyl)piperidine-1-carbonyl)-1,1a,2,7b-tetrahydro-3H-cyclopropa[c][1,8]naphthyridin-3-yl)-2-methyl-[1,2,4]triazolo[4,3-a]pyridin-3(2H)-one] | 2.72 | 6 | – | – | –
5 | Cn1nc2cc(N3CC4CC4c4cc(C(=O)N5CCC[C@H](CF)C5)cnc43)ccn2c1=O (stereo partly drawn) [Compound I-31, 7-(6-((S)-3-(fluoromethyl)piperidine-1-carbonyl)-1,1a,2,7b-tetrahydro-3H-cyclopropa[c][1,8]naphthyridin-3-yl)-2-methyl-[1,2,4]triazolo[4,3-a]pyridin-3(2H)-one] | 2.90 | 4.1 | – | – | –
6 | CCn1nc2cc(N3CC4CC4c4cc(C(=O)N5CCC(F)(F)CC5)cnc43)ccn2c1=O (stereo not drawn) [Compound I-32, 7-(6-(4,4-difluoropiperidine-1-carbonyl)-1,1a,2,7b-tetrahydro-3H-cyclopropa[c][1,8]naphthyridin-3-yl)-2-ethyl-[1,2,4]triazolo[4,3-a]pyridin-3(2H)-one] | 3.7 | 6.3 | – | – | –

— US20250034134A1, “15-PGDH INHIBITOR AND USE THEREOF” (Wuhan Humanwell Innovative Drug Research and Development …, priority 2021, published 2025)
